Values of other authors as cited in US9233169B2, “Oligomer-bis-chromonyl compound conjugates” (NEKTAR THERAPEUTICS, priority 2008, dated 2016).

Test system: mast cell degranulation
Details: monkey gingiva; Nuki et al. (1975)

O=C([O-])c1cc(=O)c2c(OCC(O)COc3cccc4oc(C(=O)[O-])cc(=O)c34)cccc2o1.[Na+].[Na+] [Cromonlyn sodium, disodium 5,5′-((2-hydroxytrimethylene)dioxy)bis(4-oxo-4H-1 benzopyran-2-carboxylate)]
inhibition of mast cell degranulation: inhibit mast cell degranulation
